Measured values as given in paper PMC8213057, “Targeting ALK2: An Open Science Approach to Developing Therapeutics for the Treatment of Diffuse Intrinsic Pontine Glioma” (Journal of Medicinal Chemistry, 2020).
Several values for one entry are separate records, joined by “and”; a condition that tells them apart may be missing. Identical values can stand only once.

Assays:
FAK/PTK2 = FAK/PTK2 (Homo sapiens, UniProt Q05397); experiment: biochemical; conditions: read-out: % enzyme activity, 1 μM; Run 1, Run 2
MASTL = target: T1, MASTL (Homo sapiens, UniProt Q96GX5); conditions: 1 μM; Run 1, Run 2
T1 sequence (Q96GX5 1-879): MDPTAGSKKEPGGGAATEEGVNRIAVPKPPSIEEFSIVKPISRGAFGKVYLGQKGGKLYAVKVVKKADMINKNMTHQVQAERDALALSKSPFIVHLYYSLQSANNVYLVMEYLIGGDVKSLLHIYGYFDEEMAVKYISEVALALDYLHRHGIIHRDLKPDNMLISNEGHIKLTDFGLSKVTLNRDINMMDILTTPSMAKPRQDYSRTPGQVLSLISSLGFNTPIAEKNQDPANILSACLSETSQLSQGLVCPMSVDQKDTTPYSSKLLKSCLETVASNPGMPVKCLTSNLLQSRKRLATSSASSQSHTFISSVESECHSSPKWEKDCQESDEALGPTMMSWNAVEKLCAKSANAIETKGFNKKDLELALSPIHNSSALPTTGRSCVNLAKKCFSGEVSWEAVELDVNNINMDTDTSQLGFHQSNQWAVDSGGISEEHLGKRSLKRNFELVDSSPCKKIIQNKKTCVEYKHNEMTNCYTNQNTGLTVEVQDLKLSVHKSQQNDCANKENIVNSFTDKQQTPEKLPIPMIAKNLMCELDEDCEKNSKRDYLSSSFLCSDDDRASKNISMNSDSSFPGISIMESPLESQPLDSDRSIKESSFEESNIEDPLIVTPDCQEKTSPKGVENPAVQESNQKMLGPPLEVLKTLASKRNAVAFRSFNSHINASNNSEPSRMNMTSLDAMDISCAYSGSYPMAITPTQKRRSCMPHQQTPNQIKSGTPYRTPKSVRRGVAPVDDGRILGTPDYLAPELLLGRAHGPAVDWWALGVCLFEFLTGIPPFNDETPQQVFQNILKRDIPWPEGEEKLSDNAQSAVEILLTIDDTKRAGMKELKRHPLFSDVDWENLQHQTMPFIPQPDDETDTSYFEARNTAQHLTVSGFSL

TAOK3/JIK = target: T2, TAOK3/JIK (Homo sapiens, UniProt Q9H2K8); conditions: 1 μM; Run 1, Run 2
T2 sequence (Q9H2K8 1-898): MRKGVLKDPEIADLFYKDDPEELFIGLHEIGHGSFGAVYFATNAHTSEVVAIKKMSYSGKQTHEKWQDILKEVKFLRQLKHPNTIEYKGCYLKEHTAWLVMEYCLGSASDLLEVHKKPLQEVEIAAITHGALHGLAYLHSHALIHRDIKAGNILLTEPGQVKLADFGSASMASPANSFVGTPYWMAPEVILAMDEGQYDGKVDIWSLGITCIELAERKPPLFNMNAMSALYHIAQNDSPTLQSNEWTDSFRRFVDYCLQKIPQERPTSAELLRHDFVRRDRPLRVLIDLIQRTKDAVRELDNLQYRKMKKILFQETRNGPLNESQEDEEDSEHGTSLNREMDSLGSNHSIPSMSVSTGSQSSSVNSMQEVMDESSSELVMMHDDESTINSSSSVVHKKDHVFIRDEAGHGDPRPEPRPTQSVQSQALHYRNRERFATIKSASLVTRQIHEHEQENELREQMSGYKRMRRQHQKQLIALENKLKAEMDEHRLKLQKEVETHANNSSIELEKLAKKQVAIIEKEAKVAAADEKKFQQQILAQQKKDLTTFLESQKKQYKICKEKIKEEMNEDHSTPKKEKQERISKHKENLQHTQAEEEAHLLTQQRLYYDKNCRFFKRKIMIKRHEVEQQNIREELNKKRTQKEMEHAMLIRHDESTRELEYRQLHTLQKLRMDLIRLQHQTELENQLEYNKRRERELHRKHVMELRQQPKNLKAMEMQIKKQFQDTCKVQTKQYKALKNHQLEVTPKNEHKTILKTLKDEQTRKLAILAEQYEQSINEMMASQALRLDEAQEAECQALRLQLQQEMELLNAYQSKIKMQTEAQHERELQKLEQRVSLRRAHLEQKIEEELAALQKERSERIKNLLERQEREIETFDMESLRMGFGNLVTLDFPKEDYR

Aurora A = target: T3, Aurora A (Homo sapiens, UniProt O14965); conditions: 1 μM; Run 1, Run 2
T3 sequence (O14965 1-403): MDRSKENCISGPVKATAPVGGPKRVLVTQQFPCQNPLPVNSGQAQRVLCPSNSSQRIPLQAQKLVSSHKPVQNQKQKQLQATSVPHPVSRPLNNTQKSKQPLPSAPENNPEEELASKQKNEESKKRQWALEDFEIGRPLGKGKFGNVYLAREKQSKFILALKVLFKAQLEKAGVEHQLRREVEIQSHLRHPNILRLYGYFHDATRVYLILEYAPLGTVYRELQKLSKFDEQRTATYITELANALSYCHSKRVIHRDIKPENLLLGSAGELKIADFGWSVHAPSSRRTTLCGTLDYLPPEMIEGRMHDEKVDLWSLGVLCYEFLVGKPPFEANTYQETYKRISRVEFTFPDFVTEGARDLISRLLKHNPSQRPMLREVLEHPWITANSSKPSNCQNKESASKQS

Sequence of FAK/PTK2 (Q05397 whole entry): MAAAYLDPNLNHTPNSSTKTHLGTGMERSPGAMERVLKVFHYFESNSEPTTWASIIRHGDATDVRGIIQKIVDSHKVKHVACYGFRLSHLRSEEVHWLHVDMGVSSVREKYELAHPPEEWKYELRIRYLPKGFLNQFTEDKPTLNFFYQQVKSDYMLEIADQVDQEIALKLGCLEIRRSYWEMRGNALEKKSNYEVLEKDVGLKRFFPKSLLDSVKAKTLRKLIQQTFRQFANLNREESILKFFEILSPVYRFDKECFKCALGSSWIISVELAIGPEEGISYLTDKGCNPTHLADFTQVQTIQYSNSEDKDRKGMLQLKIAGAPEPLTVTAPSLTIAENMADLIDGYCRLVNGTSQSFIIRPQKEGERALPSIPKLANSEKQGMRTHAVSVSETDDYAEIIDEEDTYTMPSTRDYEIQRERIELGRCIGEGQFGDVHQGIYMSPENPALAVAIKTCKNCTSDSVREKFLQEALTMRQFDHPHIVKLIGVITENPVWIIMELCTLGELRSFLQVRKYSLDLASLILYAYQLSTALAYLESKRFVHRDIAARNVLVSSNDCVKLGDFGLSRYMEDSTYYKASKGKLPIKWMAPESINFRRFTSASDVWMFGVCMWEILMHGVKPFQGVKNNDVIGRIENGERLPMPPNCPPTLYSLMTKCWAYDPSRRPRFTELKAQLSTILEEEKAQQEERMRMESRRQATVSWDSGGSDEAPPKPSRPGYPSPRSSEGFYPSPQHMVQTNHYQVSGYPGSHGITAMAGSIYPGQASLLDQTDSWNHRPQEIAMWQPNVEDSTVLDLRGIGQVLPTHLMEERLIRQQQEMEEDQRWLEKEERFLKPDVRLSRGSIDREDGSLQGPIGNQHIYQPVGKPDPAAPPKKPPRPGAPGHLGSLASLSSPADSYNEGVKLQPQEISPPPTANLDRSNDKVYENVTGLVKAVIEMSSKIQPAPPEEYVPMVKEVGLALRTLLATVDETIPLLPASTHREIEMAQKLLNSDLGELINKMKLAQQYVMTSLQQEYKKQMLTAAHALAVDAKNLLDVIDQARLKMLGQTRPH

COc1cc(-c2cncc(-c3ccc(N4C[C@@H](C)N(C)[C@@H](C)C4)cc3)c2C)cc(F)c1C(N)=O [Compound 26c, 2-Fluoro-6-methoxy-4-(4-methyl-5-(4-((3R,5S)-3,4,5-trimethylpiperazin-1-yl)phenyl)pyridin-3-yl)benzamide]
remaining activity at 1 µM (FAK/PTK2): 95.4% | % enzyme activity (MASTL): 100.30% | % enzyme activity at 1 μM (BMPR2): 104% and 100% | % enzyme activity (TAOK3/JIK): 81.51% | % enzyme activity (Aurora A): 101.37%

COc1cc(-c2cncc(-c3ccc(N4CCN(C)CC4)cc3)c2C)cc(F)c1C(N)=O [Compound 26a, 2-Fluoro-6-methoxy-4-(4-methyl-5-(4-(4-methylpiperazin-1-yl)phenyl)pyridin-3-yl)benzamide]
remaining activity at 1 µM (FAK/PTK2): 94% | % enzyme activity (MASTL): 98.59% | % enzyme activity at 1 μM (BMPR2): 89.1% and 88.4% | % enzyme activity (TAOK3/JIK): 69.26% | % enzyme activity (Aurora A): 97.24%
